Data from patent US20200062738A1, “ANTI-CANCER STEMNESS DRUGS” (Development Center for Biotechnology, priority 2017, published 2020).

How the values were obtained:
[1] = tested on: H1975-luc cells; assay: Orthotopic H1975-luc model, treatment starting 2 days after tumor implantation (FIG. 4); assay type: in vivo, mice; conditions: for tumor-free rate: 3 mpk IV, 5 times/week
From the text: (§1) Mice were orthotopically implanted with H1975-luc cells (10^6 cells/mouse). On day 0 (defined as 2 days after tumor implantation), mice were given drug treatments for 4 weeks (5 times/week), and the tumor formations were followed by non-invasive imaging on days 14 and 28.
(§2) The mouse cancer models were generated as described above. Orthotopic H1975-Luc model was described as previous study. BI-44 was administrated by IV injection through tail vein, 5 times/7 days, with the doses indicated on the figure. Gefitinib and Afatinib were administrated orally, 5 times/7 days, with the dose of 20 mpk (mg/Kg).
as §1, with “In the first animal model, Mice” for “Mice”, “were started to receive” for “were given”, “on day” for “on days”
BI-44 was administrated starting 2 days after orthotopic lung tumor implantation according to the administration scheme shown in FIG. 4A, and the tumor formations were evaluated via non-invasive bioluminescent imaging on days 14 and 28.

[2] = tested on: MCL-1; assay: MCL-1 protein expression by western blot in H1975 cells; assay type: cell-based, human; conditions: for MCL-1 protein expression: 10 μM, 6 h, western blot; for inhibition of MCL-1 expression, dose dependence: different concentrations, western blot (#44: 6 h)
Method: (§3) The abilities of compounds of the invention to inhibit BMI-1/MCl-1 expressions were assayed with cell cultures. BMI-1 and MCL-1 are overexpressed in many cancers, such as lung cancer cell line H1975. Therefore, cancer cells that overexpress BMI-1/MCL-1 provide a convenient platform for assaying BMI-1/MCL-1 inhibition.
(§4) After drug treatments, cells were washed twice with PBS, scraped, and resuspended in RIPA buffer containing protease inhibitors (20 mM Tris-HCl pH 7.5, 150 mM NaCl, 1 mM Na2EDTA, 1 mM EGTA, 1% NP-40, 1% sodium deoxycholate, 2.5 mM sodium pyrophosphate, 1 mM b-glycerophosphate, 1 mM Na3VO4, 1 μg/ml leupeptin). Cell lysate was sonicated for 5-10 min, and centrifuged at 14000 rpm for 20 minutes at 4° C. The supernatant was collected, determined for protein concentrations, and stored at −80° C. before further use.
(§5) BMI-1/MCL-1 expression levels may be assessed with western blot analysis. […] The denatured protein samples were then loaded in 10% Tris-Glycine SDS polyacrylamide gel for separating proteins. The power supply for the running condition was set at 80 V for running stacking gel and 100 V for separating gel, respectively. […] The power supply for the transfer condition was set at 300 mA, and the transfer was carried out on ice for 2.5 hours. The nitrocellulose membranes containing the denatured proteins were blocked with a solution containing 5% skim milk at room temperature for 1 hour.
In addition, the membranes were also probed with antibodies against MCL-1 and tubulin. Tubulin functions as an internal control to assess the relative loadings in different lanes on the gel. Myeloid cell leukemia 1 (MCL1) is a pro-survival protein overexpressed in many cancers.

[3] = tested on: BMI-1; assay: BMI-1 protein expression by western blot in H1975 cells; assay type: cell-based, human; conditions: for BMI-1 protein expression: 10 μM, 6 h, western blot; for inhibition of BMI-1 expression, dose dependence: different concentrations, western blot (#44: 6 h)
Method: as §3, §4, §5
After blocking, the membranes were washed with TBS containing 0.1% Tween-20 (TBST) for 5 minutes. […] After washing with TBST (5 min×3), the membranes were incubated with the secondary antibody (HRP-conjugated anti-mouse IgG, Jackson ImmunoReserch LABORATORIES INC., 1:5000) at room temperature for 1 hour. After washing with TBST (5 min×5), the membranes were incubated with chemiluminescence regent for 1 minute and imaged with a Bioluminiscent imaging system (Biospectrum-AC w/Bio Chemi Camera, UVP).

[4] = tested on: H1975-luc cells; assay: Orthotopic H1975-Luc model, treatment starting 3 weeks after tumor implantation (FIG. 5); assay type: in vivo, mice; conditions: for tumor inhibition rate: day 21
From the text: (§6) Mice were orthotopically implanted with H1975-luc cells (10^6 cells/mouse). On day 0 (defined as 3 weeks after tumor implantation), mice were imaged and started to receive drug treatments for 3 weeks (5 times/week). The tumor growths were followed by non-invasive imaging weekly.
as §2
as §6, with “In the second model, BI-44 was administrated starting 3 weeks after tumor implantation (FIG. 5A) when all the mice contained defined luciferase signals in lungs. Then, tumor growths were followed for 3 weeks (FIG. 5A). Mice” for “Mice”, “H1975-Luc” for “H1975-luc”

[5] = tested on: H1975-Luc cells; assay: In vivo anti-tumor test, orthotopic H1975-Luc mouse tumor model (FIG. 3); design: species or system SCID mice; conditions: 1 mpk IV tail vein, 5 times/7 days, 3 weeks
From the text: Mice were orthotopically implanted with H1975-luc cells (10^6 cells/mouse), and started to receive drug treatments for 3 weeks. The tumor growths were followed by non-invasive bioluminescent imaging, and quantified. […] Tarceva ([…]) was administrated orally (20 mpk, 5 times/7 days). N=5 to 7 for each group.
The derivatives showing potent anti-BMI-1/MCL-1 effects, such as compounds #43-45 (BI-43-BI-45), were selected for further in vivo anti-tumor test. The in vivo mouse tumor model was established as described below. • 1. SCID mice (70 mice, about […]) were quarantined for one week before lung cancer cells are implanted into their chest cavities. • 2. Before implanting the cancer cells into the mouse chest cavities, the mice were anesthetized with gas anesthesia. The mice were placed in a transparent acrylic box of 20 cm×10 cm×10 cm, which was connected with a flexible tubing to an anesthesia machine and an oxygen tank. Then, an appropriate amount of anesthesia (Isoflurane) was introduced into the anesthesia machine and the valve is open. […] One week after intra-thoracic implant of cancer cells, a luminescence reagent (D-luciferin) was injected into the abdominal cavities of the mice. […]
After establishment of the tumors in mice, the test compounds were administered at the indicated doses and the tumor sizes were monitored using bioluminescence. […]

SMILES: CN(C)C/C=C/C(=O)Nc1cc2c(Nc3ccc(F)c(Cl)c3)ncnc2cc1O[C@H]1CCOC1 [Afatinib, reference compound]
- tumor inhibition rate as compared to control ([1]; Afatinib 20 mpk orally, day 28): around 80%

SMILES: COc1cc(Br)c(Nc2nc(-c3c(C)nc4ncccn34)cs2)c(Br)c1 [Compound 43]
- MCL-1 protein expression [2]: significantly reduced
- BMI-1 protein expression [3]: significantly reduced

SMILES: CCc1ccc(C(=O)Nc2cccc(-c3cccc4cc[nH]c34)c2)cc1 [Compound 44, N-(3-(1H-indol-7-yl)phenyl)-4-ethylbenzamide]
- MCL-1 protein expression [2]: significantly reduced
- inhibition of MCL-1 expression, dose dependence [2]: inhibits the expressions of BMI-1 and MCL-1 in a dose-dependent manner
- inhibition of MCL-1 expression, dose dependence ([2]; listed as #44): effectively inhibited the expressions of BMI-1 and MCL-1 at sub-μM concentrations
- BMI-1 protein expression [3]: significantly reduced
- inhibition of BMI-1 expression, dose dependence [3]: inhibits the expressions of BMI-1 and MCL-1 in a dose-dependent manner
- inhibition of BMI-1 expression, dose dependence ([3]; listed as #44): effectively inhibited the expressions of BMI-1 and MCL-1 at sub-μM concentrations
- tumor-free rate ([1]; day 14): 62.5%
- tumor-free rate ([1]; day 28): 37.5%
- tumor inhibition rate as compared to control ([1]; BI-44 3 mpk IV, day 28): around 80%
- bioluminescent intensities in mice lungs ([1]; BI-44 3 mpk IV, days 14 and 28): significantly reduced bioluminescent intensities
- tumor inhibition rate ([4]; 3 mpk IV): around 90%
- tumor inhibition rate ([4]; 9 mpk IV): around 90%
- tumor growth inhibition ([4]; IV 5 times/week for 3 weeks, 1, 3, 9 mpk): significantly inhibited tumor growth in a dose-dependent manner
- anti-tumor growth effects (bioluminescence) [5]: most significant anti-tumor growth effects

SMILES: O=C(Nc1cccc(Cl)c1)Nc1cccc(-c2cccc3cc[nH]c23)c1 [Compound 45]
- MCL-1 protein expression [2]: significantly reduced
- BMI-1 protein expression [3]: significantly reduced
